Measured values reported in US12421252B2, “Spiro (isobenzofuranazetidine) compounds for the treatment of autoimmune disease” (Hoffmann-La Roche Inc., priority 2020, dated 2025).

Biological target: T1, human TLR7 (Homo sapiens, UniProt Q9NYK1)
T1 sequence (Q9NYK1 27-1049): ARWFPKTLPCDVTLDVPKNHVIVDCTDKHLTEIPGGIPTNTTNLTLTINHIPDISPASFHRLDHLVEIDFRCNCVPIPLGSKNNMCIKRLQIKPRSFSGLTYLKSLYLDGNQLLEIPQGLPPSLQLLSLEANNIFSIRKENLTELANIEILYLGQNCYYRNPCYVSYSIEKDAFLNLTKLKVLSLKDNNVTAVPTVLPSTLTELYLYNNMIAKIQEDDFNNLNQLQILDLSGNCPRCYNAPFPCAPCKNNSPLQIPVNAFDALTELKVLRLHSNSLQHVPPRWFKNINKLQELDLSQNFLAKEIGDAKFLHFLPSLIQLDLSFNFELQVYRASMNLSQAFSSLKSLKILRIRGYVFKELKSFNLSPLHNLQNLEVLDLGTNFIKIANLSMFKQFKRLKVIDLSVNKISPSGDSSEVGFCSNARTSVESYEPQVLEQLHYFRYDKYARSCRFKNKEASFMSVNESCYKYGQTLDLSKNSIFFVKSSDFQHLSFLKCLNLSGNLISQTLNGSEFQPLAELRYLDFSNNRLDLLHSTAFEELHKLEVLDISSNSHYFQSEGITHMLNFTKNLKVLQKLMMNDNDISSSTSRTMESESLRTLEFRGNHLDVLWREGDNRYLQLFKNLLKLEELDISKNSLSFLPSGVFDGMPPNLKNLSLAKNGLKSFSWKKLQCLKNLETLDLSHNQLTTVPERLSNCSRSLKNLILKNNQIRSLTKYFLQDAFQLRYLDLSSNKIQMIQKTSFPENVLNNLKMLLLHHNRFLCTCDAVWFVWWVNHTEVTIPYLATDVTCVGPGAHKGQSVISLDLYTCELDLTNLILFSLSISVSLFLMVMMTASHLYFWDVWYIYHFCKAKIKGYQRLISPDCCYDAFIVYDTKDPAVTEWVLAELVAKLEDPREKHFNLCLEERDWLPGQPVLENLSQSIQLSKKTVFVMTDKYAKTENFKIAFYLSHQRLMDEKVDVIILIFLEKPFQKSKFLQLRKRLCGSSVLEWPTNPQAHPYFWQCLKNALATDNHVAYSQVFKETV
Experiment: HEK293-Blue-hTLR-7 cells assay
Format: cell-based
Details: HEK293-Blue-hTLR7 cells, R848 stimulation, 20 hrs, SEAP reporter; read-out: HEK/hTLR7 IC50
Source text: HEK293-Blue-hTLR-7 cells assay:
A stable HEK293-Blue-hTLR-7 cell line was purchased from InvivoGen (Cat. #: hkb-htlr7, San Diego, California, USA). These cells were originally designed for studying the stimulation of human TLR7 by monitoring the activation of NF-κB. A SEAP (secreted embryonic alkaline phosphatase) reporter gene was placed under the control of the IFN-β minimal promoter fused to five NF-κB and AP-1-binding sites. The SEAP was induced by activating NF-κB and AP-1 via stimulating HEK-Blue hTLR7 cells with TLR7 ligands. Therefore the reporter expression was declined by TLR7 antagonist under the stimulation of a ligand, such as R848 (Resiquimod), for incubation of 20 hrs. The cell culture supernatant SEAP reporter activity was determined using QUANTI-Blue™ kit (Cat. #: rep-qb1, Invivogen, San Diego, Ca, USA) at a wavelength of 640 nm, a detection medium that turns purple or blue in the presence of alkaline phosphatase.
HEK293-Blue-hTLR7 cells were incubated at a density of 250,000˜450,000 cells/mL in a volume of 170 μL in a 96-well plate in Dulbecco's Modified Eagle's medium (DMEM) containing 4.5 g/L glucose, 50 U/mL penicillin, […], […], 2 mM L-glutamine, 10% (v/v) heat-inactivated fetal bovine serum with addition of 20 μL test compound in a serial dilution in the presence of final DMSO at 1% and 10 μL of 20 uM R848 in above DMEM, perform incubation under 37° C. in a CO2 incubator for 20 hrs. Then 20 μL of the supernatant from each well was incubated with 180 μL Quanti-blue substrate solution at 37° C. for 2 hrs and the absorbance was read at 620˜655 nm using a spectrophotometer. The signaling pathway that TLR7 activation leads to downstream NF-κB activation has been widely accepted, and therefore similar reporter assay was modified for evaluating TLR7 antagonist.

Row | IC50 [nM] | Structure (SMILES)
1 | 23 | C[C@@H]1CN(c2ccc(C#N)n3nccc23)C[C@H](CN2CC3(C2)OCc2cc(N4CC(C)(N)C4)ncc23)O1 [Example 25, 4-[(2S,6R)-2-[[6-(3-amino-3-methyl-azetidin-1-yl)spiro[1H-furo[3,4-c]pyridine-3,3′-azetidine]-1′-yl]methyl]-6-methyl-morpholin-4-yl]pyrazolo[1,5-a]pyridine-7-carbonitrile]
2 | 9 | C[C@@H]1CN(c2ccc(C#N)n3ncc(F)c23)C[C@H](CN2CC3(C2)OCc2cc(N4CC5(CN(C)C5)C4)cnc23)O1 [Example 22, 3-fluoro-4-[(2R,6S)-2-methyl-6-[[3-(6-methyl-2,6-diazaspiro[3.3]heptan-2-yl)spiro[5H-furo[3,4-b]pyridine-7,3′-azetidine]-1′-yl]methyl]morpholin-4-yl]pyrazolo[1,5-a]pyridine-7-carbonitrile]
3 | 10 | C[C@@H]1CN(c2cc(=O)n(C)c3ncccc23)C[C@H](CN2CC3(C2)OCc2cc(N4CC(N)C4)ccc23)O1 [Example 13, 4-[(2S,6R)-2-[[6-(3-aminoazetidin-1-yl)spiro[1H-isobenzofuran-3,3′-azetidine]-1′-yl]methyl]-6-methyl-morpholin-4-yl]-1-methyl-1,8-naphthyridin-2-one]
4 | 9 | [2H]c1ccc2c(N3C[C@H](CN4CC5(C4)OCc4cc(N6CC(N)C6)cnc45)O[C@H](C)C3)ccc(C#N)c2n1 [Example 20, 5-[(2S,6R)-2-[[3-(3-aminoazetidin-1-yl)spiro[5H-furo[3,4-b]pyridine-7,3′-azetidine]-1′-yl]methyl]-6-methyl-morpholin-4-yl]-2-deuterio-quinoline-8-carbonitrile]
5 | 8 | C[C@@H]1CN(c2ccc(C#N)n3ncc(F)c23)C[C@H](CN2CC3(C2)OCc2cc(N4C[C@H](N)[C@@H](O)C4)ccc23)O1 [Example 10, 4-[(2S,6R)-2-[[6-[(3S,4S)-3-amino-4-hydroxy-pyrrolidin-1-yl]spiro[1H-isobenzofuran-3,3′-azetidine]-1′-yl]methyl]-6-methyl-morpholin-4-yl]-3-fluoro-pyrazolo[1,5-a]pyridine-7-carbonitrile]
6 | 15 | C[C@@H]1CN(c2ccc(C#N)n3nccc23)C[C@H](CN2CC3(C2)OCc2cc(N4CC5(CNCCO5)C4)ccc23)O1 [Example 7, 4-[(2R,6S)-2-methyl-6-[[6-(5-oxa-2,8-diazaspiro[3.5]nonan-2-yl)spiro[1H-isobenzofuran-3,3′-azetidine]-1′-yl]methyl]morpholin-4-yl]pyrazolo[1,5-a]pyridine-7-carbonitrile]
7 | 19 | [2H]c1ccc2c(N3C[C@H](CN4CC5(C4)OCc4cc(N6C[C@@H](N)[C@H](OC)C6)ccc45)O[C@H](C)C3)ccc(C#N)c2n1 [Example 16, 5-[(2S,6R)-2-[[6-[(3R,4R)-3-amino-4-methoxy-pyrrolidin-1-yl]spiro[1H-isobenzofuran-3,3′-azetidine]-1′-yl]methyl]-6-methyl-morpholin-4-yl]-2-deuterio-quinoline-8-carbonitrile]
8 | 10 | C[C@@H]1CN(c2ccc(C#N)n3ncc(F)c23)C[C@H](CN2CC3(C2)OCc2cc(N4CC5(CN(C)C5)C4)ccc23)O1 [Example 2, 3-fluoro-4-[(2R,6S)-2-methyl-6-[[6-(6-methyl-2,6-diazaspiro[3.3]heptan-2-yl)spiro[1H-isobenzofuran-3,3′-azetidine]-1′-yl]methyl]morpholin-4-yl]pyrazolo[1,5-a]pyridine-7-carbonitrile]
